Tests used:
Pseudomonas aeruginosa [1] = experiment: antimicrobial activity against Pseudomonas aeruginosa
Pseudomonas aeruginosa [2] = experiment: Antimicrobial activity against Pseudomonas aeruginosa relative to peptide Bac2A RLARIVVIRVAR sequence

In the case of H-LRFILWWKR-OH, the pIC50 (Pseudomonas aeruginosa [1]) is reported as 6.06 and the Ratio IC50 (Pseudomonas aeruginosa [2]) is reported as 0.88.
H-RHWKTWWKR-OH was tested, and the pIC50 (Pseudomonas aeruginosa [1]) was 6.02 and the Ratio IC50 (Pseudomonas aeruginosa [2]) was 0.95.
Work on H-KKRWLWWWR-OH yielded a pIC50 (Pseudomonas aeruginosa [1]) of 6.52 and a Ratio IC50 (Pseudomonas aeruginosa [2]) of 0.3.
N=C(N)NCCC[C@H](NC(=O)[C@H](CCCCN)NC(=O)[C@H](CCCNC(=N)N)NC(=O)[C@@H](N)CCCNC(=N)N)C(=O)N[C@@H](Cc1c[nH]c2ccccc12)C(=O)N[C@@H](Cc1c[nH]c2ccccc12)C(=O)N[C@@H](Cc1c[nH]c2ccccc12)C(=O)N[C@@H](Cc1c[nH]c2ccccc12)C(=O)N[C@@H](Cc1c[nH]c2ccccc12)C(=O)O gave a pIC50 (Pseudomonas aeruginosa [1]) of 6.37 and a Ratio IC50 (Pseudomonas aeruginosa [2]) of 0.43.
In the case of H-RIKRWWWWR-OH, the pIC50 (Pseudomonas aeruginosa [1]) is reported as 6.51 and the Ratio IC50 (Pseudomonas aeruginosa [2]) is reported as 0.31.
With H-IRRRKWWWW-OH the pIC50 (Pseudomonas aeruginosa [1]) was 6.68 and the Ratio IC50 (Pseudomonas aeruginosa [2]) was 0.21.
H-TRKVWWWRW-OH was tested, and the pIC50 (Pseudomonas aeruginosa [1]) was 6.12 and the Ratio IC50 (Pseudomonas aeruginosa [2]) was 0.76.
In the case of H-WKRWKWWKR-OH, the pIC50 (Pseudomonas aeruginosa [1]) is reported as 6.6 and the Ratio IC50 (Pseudomonas aeruginosa [2]) is reported as 0.25.
Compound H-WRWWKWWRR-OH has a pIC50 (Pseudomonas aeruginosa [1]) of 6.64 and a Ratio IC50 (Pseudomonas aeruginosa [2]) of 0.23.
H-KRRRIWWWK-OH gave a pIC50 (Pseudomonas aeruginosa [1]) of 6.4 and a Ratio IC50 (Pseudomonas aeruginosa [2]) of 0.4.
With H-RKRLKWWIY-OH the pIC50 (Pseudomonas aeruginosa [1]) was 6.74 and the Ratio IC50 (Pseudomonas aeruginosa [2]) was 0.18.
For H-RKWWRWWRW-OH, the pIC50 (Pseudomonas aeruginosa [1]) was 6.51 and the Ratio IC50 (Pseudomonas aeruginosa [2]) was 0.31.
H-KRKIWWWIR-OH showed a pIC50 (Pseudomonas aeruginosa [1]) of 6.55 and a Ratio IC50 (Pseudomonas aeruginosa [2]) of 0.28.
N=C(N)NCCC[C@H](NC(=O)[C@H](CCCNC(=N)N)NC(=O)[C@@H](N)CCCNC(=N)N)C(=O)N[C@@H](Cc1c[nH]c2ccccc12)C(=O)N[C@@H](Cc1c[nH]c2ccccc12)C(=O)N[C@@H](Cc1c[nH]c2ccccc12)C(=O)N[C@@H](Cc1c[nH]c2ccccc12)C(=O)N[C@@H](Cc1c[nH]c2ccccc12)C(=O)N[C@@H](Cc1c[nH]c2ccccc12)C(=O)O gave a pIC50 (Pseudomonas aeruginosa [1]) of 5.74 and a Ratio IC50 (Pseudomonas aeruginosa [2]) of 1.82.
With H-RWWRKWWIR-OH the pIC50 (Pseudomonas aeruginosa [1]) was 6.62 and the Ratio IC50 (Pseudomonas aeruginosa [2]) was 0.24.
For H-RRIWRWWWW-OH, the pIC50 (Pseudomonas aeruginosa [1]) was 6.17 and the Ratio IC50 (Pseudomonas aeruginosa [2]) was 0.68.
For H-WHGVRWWKW-OH, the pIC50 (Pseudomonas aeruginosa [1]) was 5.6 and the Ratio IC50 (Pseudomonas aeruginosa [2]) was 2.5.
Work on H-RWILWWWRI-OH yielded a pIC50 (Pseudomonas aeruginosa [1]) of 4.6 and a Ratio IC50 (Pseudomonas aeruginosa [2]) of 25.
H-RIKVIWWWR-OH gave a pIC50 (Pseudomonas aeruginosa [1]) of 6.29 and a Ratio IC50 (Pseudomonas aeruginosa [2]) of 0.51.
H-RWRRKWWWW-OH gave a pIC50 (Pseudomonas aeruginosa [1]) of 6.41 and a Ratio IC50 (Pseudomonas aeruginosa [2]) of 0.39.
H-KRWWWWWKR-OH gave a pIC50 (Pseudomonas aeruginosa [1]) of 6.66 and a Ratio IC50 (Pseudomonas aeruginosa [2]) of 0.22.
H-KRWWKWWRR-OH gave a pIC50 (Pseudomonas aeruginosa [1]) of 6.89 and a Ratio IC50 (Pseudomonas aeruginosa [2]) of 0.13.
H-IRRRWWWIV-OH showed a pIC50 (Pseudomonas aeruginosa [1]) of 6.64 and a Ratio IC50 (Pseudomonas aeruginosa [2]) of 0.23.
H-KWWKIWWKR-OH was tested, and the pIC50 (Pseudomonas aeruginosa [1]) was 6.7 and the Ratio IC50 (Pseudomonas aeruginosa [2]) was 0.2.

— ChEMBL document CHEMBL3352520, “CoMFA and CoMSIA analysis of ACE-inhibitory, antimicrobial and bitter-tasting peptides” (Eur J Med Chem, 2014)
